Test results published in EP4733383A1, “CULTURE MEDIUM AND BLOOD CELL CLONE, AND METHOD FOR PRODUCING SAME” (Japan Institute for Health Security, priority 2023, dated 2024).
“Also recorded” adds a separate entry of the source.

How the values were obtained:
Type in all cases: cell-based
[1] = tested on: EPCR-positive HSCs (EPCR+HSCs); assay: Culture of HSCs in the presence of carboxylic acid derivatives of thyronine; conditions: compared to the control group treated with DMSO alone; Figure 9
From the text: T3 represents 3,3',5-triiodo-L-thyronine (T3). T3 acetic acid denotes 3,3',5-triiodo-L-thyroacetic acid (T3AA). 35T2 denotes 3,5-diiodo-L-thyronine (3,5-T2). 35T2 acetic acid denotes 3,5-diiodo-L-thyroacetic acid (3,5-T2AA). 33T2 denotes 3,3'-diiodo-L-thyronine (3,3'-T2).

[2] = tested on: mouse HSCs; assay: Short-term culture of HSCs (one week) with thyroid hormones and metabolites; conditions: 10 µM; for number of HSCs after culture (total cell count per colony): 300 mouse HSCs cultured one week in SF-O3, SCF 100ng/mL, TPO 100ng/mL, vs control (Ctl), Figure 1; for CD48 expression (mean fluorescence intensity of CD48 staining per colony): one week culture, CD48 is a marker for cells differentiating from HSCs, Figure 2
Experimental: Method: A population containing mouse hematopoietic stem cells was processed using a cell sorter to enrich cells with the surface phenotype CD150^+ CD48^- EPCR^+ Lineage^- Sca-1^+c-Kit^+. These purified cells are hereinafter referred to as mouse HSCs. 300 mouse HSCs were cultured for one week at 37°C under 5% CO2 in medium containing SF-O3 (Sanko Junyaku), SCF 100ng/mL, and TPO 100ng/mL. The number of cells in each colony formed after culture was counted. All subsequent culture experiments were performed at 37°C under 5% CO2. The concentration of each thyroid hormone and its metabolites was set to 10 µM. The control group (Ctl) medium contained no added thyroid hormones or metabolites.
Results: The groups treated with thyroid hormones and their metabolites were compared to the control group (Ctl). […] Circles represent counts per colony. Error bars indicate standard deviation. "Ctl" on the x-axis denotes the absence of added thyroid hormones and their metabolites. […] Circles represent measured values per colony. Error bars indicate standard deviation.
In Figures 1 and 2, T4 denotes thyroxine (T4). T3 denotes 3,3',5-triiodo-L-thyronine (T3). rT3 denotes 3,3',5'-triiodothyronine (rT3). 3,3'T2 denotes 3,3'-diiodo-L-thyronine (3,3'-T2). 3,5T2 denotes 3,5-diiodo-L-thyronine (3,5-T2). 3',5'T2 denotes 3',5'-diiodo-L-thyronine (3',5'-T2). T1AA denotes 3-iodothyroacetic acid (3-T1AA). T1AM denotes 3-iodothyronamine (3-T1AM). L-T0 denotes L-thyronine (T0). DL-T0 denotes the racemic form of thyronine.

[3] = tested on: EPCR+HSC; assay: 4-week culture of hematopoietic cells in the presence of T2
From the text: The control group received only DMSO. Differentiated blood cells are c-Kit-negative cells. MPP3, MPP2, and MPP1 are multipotent progenitor cells (MPPs) referred to as hematopoietic progenitor cells. EPCR-HSC are EPCR-negative HSCs. EPCR-HSC are slightly less functional than EPCR-positive HSCs. EPCR+HSC are EPCR-positive HSCs. EPCR+HSC represent the most undifferentiated population among HSCs.

[4] = tested on: mouse-derived HSCs; assay: Expansion of mouse-derived HSCs in serum-free medium containing PVA; conditions: serum-free medium containing PVA and T2
Experimental: Mouse-derived HSCs were cultured in serum-free medium containing PVA and T2 instead of the serum-containing T2 medium described above. HSC expansion was also promoted in this serum-free medium. Furthermore, HSC differentiation was suppressed. At this time, the optimal concentration of T2 was 0.1 µM.

[5] = tested on: mouse-derived HSCs; assay: Culture of HSCs in medium containing a thyroid hormone derivative; conditions: medium containing sobetirome
From the text: Additionally, HSC differentiation was suppressed.

Structure (SMILES) | proportion of EPCR+HSCs after culturing HSCs [1] | number of HSCs after culture (total cell count per colony) [2] | CD48 expression (mean fluorescence intensity of CD48 staining per colony) [2] | also measured
N[C@@H](Cc1ccc(Oc2ccc(O)c(I)c2)c(I)c1)C(=O)O [3,3'-T2, 3,3'-Diiodo-L-thyronine] | increased | high | maintained at low levels; also recorded: most strongly suppressed CD48 expression | 
N[C@@H](Cc1cc(I)c(Oc2ccc(O)cc2)c(I)c1)C(=O)O [3,5-T2, 3,5-Diiodo-L-thyronine] | increased | high | maintained at low levels | 
O=C(O)Cc1cc(I)c(Oc2ccc(O)cc2)c(I)c1 [35T2 acetic acid, 3,5-Diiodo-L-thyroacetic acid] | increased |  |  | 
O=C(O)Cc1ccc(Oc2ccc(O)cc2)c(I)c1 [T1AA, 3-Iodo-L-thyroacetic acid] |  | tendency to promote cell proliferation | tendency to reduce CD48 expression | 
N[C@@H](Cc1ccc(Oc2ccc(O)c(I)c2)c(I)c1)C(=O)O [T2, 3,3'-Diiodo-L-thyronine] |  |  |  | expansion factor of EPCR+HSC ([3]; EPCR+HSC cultured 4 weeks in the presence of T2): 204 fold; EPCR+HSC expansion ([3]; EPCR+HSC cultured 4 weeks in the presence of T2, vs control group (DMSO), Figure 10): expanded more than in the control group; expansion of other cells derived from EPCR+HSC (EPCR-HSC, MPP3, MPP2, MPP1, differentiated blood cells) ([3]; EPCR+HSC cultured 4 weeks in the presence of T2, Figure 10): expanded; HSC differentiation [4]: suppressed; HSC expansion [4]: promoted; optimal concentration of T2 [4]: 0.1 µM
N[C@@H](Cc1cc(I)c(Oc2ccc(O)c(I)c2)c(I)c1)C(=O)O [T3, 3,3',5-triiodo-L-thyronine] | increased | high | maintained at low levels | 
N[C@@H](Cc1cc(I)c(Oc2cc(I)c(O)c(I)c2)c(I)c1)C(=O)O [T4, thyroxine] |  | high | maintained at low levels | 
N[C@@H](Cc1ccc(Oc2cc(I)c(O)c(I)c2)c(I)c1)C(=O)O [rT3, 3,3',5'-Triiodothyronine] |  | high | maintained at low levels | 
Cc1cc(OCC(=O)O)cc(C)c1Cc1ccc(O)c(C(C)C)c1 [sobetirome, Sobetirome] |  |  |  | HSC differentiation [5]: suppressed; HSC expansion [5]: promoted HSC expansion
